Here are results for two compounds from patent US20080306131A1, “Progesterone receptor modulator and uses thereof” (Wyeth, priority 2007, published 2008).

Where two headings read alike, the source gives them in different places.

This test concerns the target T1, progesterone receptors (PR) (Homo sapiens, UniProt P06401).
T1 sequence (P06401 1-933): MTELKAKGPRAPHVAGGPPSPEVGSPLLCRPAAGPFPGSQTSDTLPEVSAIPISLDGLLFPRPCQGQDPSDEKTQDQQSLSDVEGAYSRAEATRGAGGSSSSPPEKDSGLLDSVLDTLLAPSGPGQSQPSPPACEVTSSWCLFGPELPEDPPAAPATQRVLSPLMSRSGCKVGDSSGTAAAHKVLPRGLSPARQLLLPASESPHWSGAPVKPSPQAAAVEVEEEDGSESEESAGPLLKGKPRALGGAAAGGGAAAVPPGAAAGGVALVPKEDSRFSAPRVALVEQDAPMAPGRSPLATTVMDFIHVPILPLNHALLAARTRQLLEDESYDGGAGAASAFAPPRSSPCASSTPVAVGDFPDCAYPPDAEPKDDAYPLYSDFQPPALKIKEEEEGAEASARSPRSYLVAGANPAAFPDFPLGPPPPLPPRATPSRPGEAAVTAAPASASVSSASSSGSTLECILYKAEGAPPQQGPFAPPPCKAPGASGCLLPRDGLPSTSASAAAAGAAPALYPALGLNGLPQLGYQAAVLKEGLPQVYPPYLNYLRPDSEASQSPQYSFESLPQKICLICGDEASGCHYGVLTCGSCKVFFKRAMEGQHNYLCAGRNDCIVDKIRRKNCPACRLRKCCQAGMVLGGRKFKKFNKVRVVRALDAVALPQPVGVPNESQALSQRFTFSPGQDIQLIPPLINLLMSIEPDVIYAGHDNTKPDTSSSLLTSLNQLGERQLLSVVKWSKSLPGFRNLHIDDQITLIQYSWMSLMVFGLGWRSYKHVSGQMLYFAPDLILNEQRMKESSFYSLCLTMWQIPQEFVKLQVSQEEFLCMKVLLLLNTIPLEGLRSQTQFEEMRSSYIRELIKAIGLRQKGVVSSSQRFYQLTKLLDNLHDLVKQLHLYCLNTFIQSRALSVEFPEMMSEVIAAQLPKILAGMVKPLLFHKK
Briefly: PRE luciferase reporter assay and Quantigene branched DNA assay (TF, PPL) for progestin activity in T47D cells. Format: cell-based. Conditions: read-out: efficacies (percentage of the maximum P4 response). How it is done:
Progestin activity was measured using a common luciferase reporter system in cells expressing endogenous progesterone receptors (PR). T47D breast cancer cells were plated at 50,000 cells/well in 96 well plates in DMEM/F-12 supplemented with penicillin/streptomycin, Glutamax and 5% FBS (Gibco). Cells were infected with a 1:1000 dilution of an adenovirus vector expressing luciferase under the control of three copies of a consensus progesterone receptor regulatory element (PRE) located in the promoter region. Following a two-hour post-infection recovery, cells were treated for 20 hours with progesterone (P4) or test compounds. Luciferase reporter activity was quantified using the Luciferase Assay System (Promega) and a Victor2 luminometer (Perkin Elmer).
T47D cells were plated as in the PRE assay and treated with compound for 15 hours. Expression of tissue factor (TF), a PR-β isoform regulated gene, or periplakin (PPL), a PR-A regulated gene, was measured by the Quantigene branched DNA assay (Genospectra) using the Victor2 luminometer following the manufacturer's recommended protocol.
EC50 values were determined using the dose response nonlinear fit model from the SAS statistics package (SAS Institute Inc). Efficacies were calculated as a percentage of the maximum P4 response.

`CC1(C)C(=O)C=CC2(C)C3(C)c4[nH]c5ccccc5c4CC3CCC12O` (centres unmarked) [4a-hydroxy-4,4,12b,12c-tetramethyl-4a,5,6,6a,7,12,12b,12c-octahydrobenzo[6,7]indeno[1,2-b]indol-3(4H)-one]: the Emax (T47D) was less than 1%. On to `CO[C@H]1[C@H](O)[C@@H](O)[C@@H](Oc2ccc3c4c([nH]c3c2)[C@]2(C)[C@H](CC[C@@H]3C(C)(C)C(=O)C=C[C@]32C)C4)O[C@@H]1CO` [(4aS,6aR,12bR,12cR)-4,4,12b,12c-tetramethyl-3-oxo-3,4,4a,5,6,6a,7,12,12b,12c-decahydrobenzo[6,7]indeno[1,2-b]indol-10-yl 4-O-methyl-α-D-glucopyranoside], for which, under “T47D breast cancer cells, percentage of maximum progesterone (P4) response, the text does not say which assay (PRE luciferase, TF, PPL) each value comes from”, the Emax is less than 1%.
